From patent US8198273B2, “Compounds and methods for kinase modulation, and indications therefor” (Plexxikon Inc., priority 2009, dated 2012)

How the values were obtained:
CYP3A4(BQ) = CYP3A4(BQ) (Homo sapiens, UniProt P08684); assay: CYP3A4(BQ) inhibition (fluorescent substrate); format: in vitro ADME; conditions: read-out: Cyp IC50 3A4(BQ)
Method in brief: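 Inhibition was followed as loss of fluorescent metabolite from a known substrate, with compound in co-factor mix as a 10-point 1:1 serial dilution (100 mM DMSO stock).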

Colo205 xenograft = Colo205 xenograft mouse model, tumor growth inhibition; format: in vivo; conditions: COLO 205, 336 h, female nu/nu mice, 10 mg/kg daily for fourteen days
Protocol: Tumor growth is monitored to approximately 100 mg size, and mice are distributed to treatment groups such that the mean tumor burden within a group is within 10% of the overall mean tumor burden. […] Mice are observed daily, with tumor burden and body weights measured twice a week. Animals with tumor burden above 1500-2000 mg and any animals in moribund condition are euthanized. The average tumor growth of vehicle control group mice is compared to the average tumor growth of the test compound mice. Percent tumor growth inhibition is calculated as 100×[(tumor growth control-tumor growth test compound)/tumor growth control].

A-Raf = biological target: T1, A-Raf (Homo sapiens, UniProt P10398); assay: A-Raf biochemical kinase inhibition (AlphaScreen, biotin-MEK1 substrate); conditions: 100 μM ATP
T1 sequence (P10398 1-606): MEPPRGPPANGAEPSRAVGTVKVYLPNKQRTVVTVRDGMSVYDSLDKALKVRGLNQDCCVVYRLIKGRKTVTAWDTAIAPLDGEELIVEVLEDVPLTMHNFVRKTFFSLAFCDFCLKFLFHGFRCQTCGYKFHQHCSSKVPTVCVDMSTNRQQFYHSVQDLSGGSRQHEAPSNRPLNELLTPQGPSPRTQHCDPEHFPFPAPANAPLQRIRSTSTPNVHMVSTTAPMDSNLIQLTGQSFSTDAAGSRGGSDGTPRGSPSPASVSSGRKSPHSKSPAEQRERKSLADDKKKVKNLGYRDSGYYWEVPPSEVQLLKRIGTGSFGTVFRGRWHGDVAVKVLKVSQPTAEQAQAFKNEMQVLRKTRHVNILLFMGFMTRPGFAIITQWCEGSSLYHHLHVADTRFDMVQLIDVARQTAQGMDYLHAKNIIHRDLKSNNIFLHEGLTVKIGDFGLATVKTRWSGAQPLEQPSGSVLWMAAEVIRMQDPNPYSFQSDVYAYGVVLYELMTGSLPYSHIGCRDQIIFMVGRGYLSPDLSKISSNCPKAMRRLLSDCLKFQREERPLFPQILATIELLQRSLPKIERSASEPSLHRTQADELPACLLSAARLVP
Method in brief: (§1)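 Raf kinases phosphorylating biotin-MEK1, reaction started with ATP at 100 μM final. Compounds tested at 8 points by serial dilution from a 0.1 mM DMSO stock.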

c-Raf-1 = c-Raf-1 (Homo sapiens, UniProt P04049); assay: c-Raf-1 biochemical kinase inhibition (AlphaScreen, biotin-MEK1 substrate); conditions: 100 μM ATP
Sequence of c-Raf-1 (P04049 whole entry): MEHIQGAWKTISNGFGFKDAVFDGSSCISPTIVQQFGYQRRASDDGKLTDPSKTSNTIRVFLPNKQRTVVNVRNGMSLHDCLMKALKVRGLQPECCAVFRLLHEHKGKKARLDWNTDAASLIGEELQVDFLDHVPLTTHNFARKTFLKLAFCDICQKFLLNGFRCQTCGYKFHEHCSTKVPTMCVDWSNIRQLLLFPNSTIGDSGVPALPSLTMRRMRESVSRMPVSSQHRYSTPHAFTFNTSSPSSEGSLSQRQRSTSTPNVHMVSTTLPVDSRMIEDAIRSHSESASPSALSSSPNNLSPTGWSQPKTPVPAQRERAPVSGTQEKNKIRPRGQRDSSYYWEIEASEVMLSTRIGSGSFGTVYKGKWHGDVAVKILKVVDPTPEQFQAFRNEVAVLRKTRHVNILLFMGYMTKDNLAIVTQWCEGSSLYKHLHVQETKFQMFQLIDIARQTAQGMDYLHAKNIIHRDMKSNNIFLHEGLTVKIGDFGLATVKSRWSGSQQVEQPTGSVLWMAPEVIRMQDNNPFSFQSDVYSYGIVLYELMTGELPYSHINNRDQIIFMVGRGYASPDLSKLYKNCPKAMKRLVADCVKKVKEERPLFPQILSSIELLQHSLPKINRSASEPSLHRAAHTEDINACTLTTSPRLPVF
Method in brief: as §1

Sequence of CYP3A4(BQ) (P08684 whole entry): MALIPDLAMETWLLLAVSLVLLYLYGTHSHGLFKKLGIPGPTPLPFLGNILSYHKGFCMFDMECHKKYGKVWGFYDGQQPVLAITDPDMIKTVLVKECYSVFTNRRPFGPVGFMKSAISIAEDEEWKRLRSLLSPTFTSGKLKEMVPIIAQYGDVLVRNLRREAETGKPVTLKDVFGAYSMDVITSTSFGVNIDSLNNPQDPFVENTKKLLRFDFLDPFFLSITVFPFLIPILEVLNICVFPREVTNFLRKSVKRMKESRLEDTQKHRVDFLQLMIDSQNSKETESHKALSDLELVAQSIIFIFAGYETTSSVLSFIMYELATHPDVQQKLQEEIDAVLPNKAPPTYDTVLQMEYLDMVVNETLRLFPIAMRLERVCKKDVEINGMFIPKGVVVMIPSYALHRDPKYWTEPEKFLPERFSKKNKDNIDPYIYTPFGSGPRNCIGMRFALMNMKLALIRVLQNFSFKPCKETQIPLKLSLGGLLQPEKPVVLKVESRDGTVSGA

IC50 (CYP3A4(BQ)) [nM]	IC50 (A-Raf) [nM]	IC50 (c-Raf-1) [nM]	Compound	inhibition in vivo at 10 mg/kg (Colo205 xenograft) [%]
> 10000	< 10	–	N#Cc1cnc2[nH]cc(C(=O)c3c(F)ccc(NS(=O)(=O)c4ccccc4F)c3F)c2c1 [P-2011, N-[3-(5-Cyano-1H-pyrrolo[2,3-b]pyridine-3-carbonyl)-2,4-difluoro-phenyl]-2-fluoro-benzenesulfonamide]	72
> 10000	< 10	< 10	Cc1cnc2[nH]cc(C(=O)c3c(F)ccc(NS(=O)(=O)c4cc(F)ccc4F)c3F)c2c1 [P-2015, N-[2,4-Difluoro-3-(5-methyl-1H-pyrrolo[2,3-b]pyridine-3-carbonyl)-phenyl]-2,5-difluoro-benzenesulfonamide]	67
> 10000	–	< 10	COc1ccnc2[nH]cc(C(=O)c3c(F)ccc(NS(=O)(=O)c4ccccc4F)c3F)c12 [P-2021, N-[2,4-Difluoro-3-(4-methoxy-1H-pyrrolo[2,3-b]pyridine-3-carbonyl)-phenyl]-2-fluoro-benzenesulfonamide]	35
> 10000	< 10	< 10	N#Cc1cnc2[nH]cc(C(=O)c3c(F)ccc(NS(=O)(=O)c4ccccc4)c3F)c2c1 [P-2046, N-[3-(5-Cyano-1H-pyrrolo[2,3-b]pyridine-3-carbonyl)-2,4-difluoro-phenyl]-benzenesulfonamide]	70
> 10000	< 10	< 10	N#Cc1cnc2[nH]cc(C(=O)c3cccc(NS(=O)(=O)c4ccccc4)c3F)c2c1 [P-2056, N-[3-(5-Cyano-1H-pyrrolo[2,3-b]pyridine-3-carbonyl)-2-fluoro-phenyl]-benzenesulfonamide]	66
< 5000	< 100	< 10	Cc1cnc2[nH]cc(C(=O)c3c(F)ccc(NS(=O)(=O)c4cccnc4)c3F)c2c1 [P-2069, Pyridine-3-sulfonic acid [2,4-difluoro-3-(5-methyl-1H-pyrrolo[2,3-b]pyridine-3-carbonyl)-phenyl]-amide]	29
< 5000	–	< 10	CCCS(=O)(=O)Nc1ccc(F)c(C(=O)c2c[nH]c3ncc(-c4cncnc4)cc23)c1F [P-2162, Propane-1-sulfonic acid [2,4-difluoro-3-(5-pyrimidin-5-yl-1H-pyrrolo[2,3-b]pyridine-3-carbonyl)-phenyl]-amide]	17
< 5000	–	< 10	CCCS(=O)(=O)Nc1ccc(F)c(C(=O)c2c[nH]c3ncc(-c4ccc(OCCCN(C)C)nc4)cc23)c1F [P-2178, Propane-1-sulfonic acid (3-{5-[6-(3-dimethylamino-propoxy)-pyridin-3-yl]-1H-pyrrolo[2,3-b]pyridine-3-carbonyl}-2,4-difluoro-phenyl)-amide]	0
> 10000	< 10	< 10	CCCS(=O)(=O)Nc1ccc(F)c(C(=O)c2c[nH]c3ncc(-c4cnc(N(C)C)nc4)cc23)c1F [P-2196, Propane-1-sulfonic acid {3-[5-(2-dimethylamino-pyrimidin-5-yl)-1H-pyrrolo[2,3-b]pyridine-3-carbonyl]-2,4-difluoro-phenyl}-amide]	71
> 10000	–	< 10	CCCS(=O)(=O)Nc1ccc(F)c(C(=O)c2c[nH]c3ncc(-c4cnc(C)nc4)cc23)c1F [P-2211, Propane-1-sulfonic acid {2,4-difluoro-3-[5-(2-methyl-pyrimidin-5-yl)-1H-pyrrolo[2,3-b]pyridine-3-carbonyl]-phenyl}-amide]	0
> 10000	< 10	< 10	CCCS(=O)(=O)Nc1ccc(F)c(C(=O)c2c[nH]c3ncc(-c4ccc(OCCN5CCOCC5)nc4)cc23)c1F [P-2232, Propane-1-sulfonic acid (2,4-difluoro-3-{5-[6-(2-morpholin-4-yl-ethoxy)-pyridin-3-yl]-1H-pyrrolo[2,3-b]pyridine-3-carbonyl}-phenyl)-amide]	54
5000 to 10000	< 10	< 10	CCCS(=O)(=O)Nc1ccc(F)c(C(=O)c2c[nH]c3ncc(C#CCOC)cc23)c1F [P-2239, Propane-1-sulfonic acid {2,4-difluoro-3-[5-(3-methoxy-prop-1-ynyl)-1H-pyrrolo[2,3-b]pyridine-3-carbonyl]-phenyl}-amide]	4
5000 to 10000	< 10	< 10	C#Cc1cnc2[nH]cc(C(=O)c3c(F)ccc(NS(=O)(=O)CCC)c3F)c2c1 [P-2260, Propane-1-sulfonic acid [3-(5-ethynyl-1H-pyrrolo[2,3-b]pyridine-3-carbonyl)-2,4-difluoro-phenyl]-amide]	79
> 10000	< 10	< 10	CCCS(=O)(=O)Nc1cccc(C(=O)c2c[nH]c3ncc(-c4cnc(OC)nc4)cc23)c1F [P-2407, Propane-1-sulfonic acid {2-fluoro-3-[5-(2-methoxy-pyrimidin-5-yl)-1H-pyrrolo[2,3-b]pyridine-3-carbonyl]-phenyl}-amide]	–
> 10000	< 10	< 100	CCCS(=O)(=O)Nc1cccc(C(=O)c2c[nH]c3ncc(-c4cnc(N(C)C)nc4)cc23)c1F [P-2408, Propane-1-sulfonic acid {3-[5-(2-dimethylamino-pyrimidin-5-yl)-1H-pyrrolo[2,3-b]pyridine-3-carbonyl]-2-fluoro-phenyl}-amide]	–
